These results are taken from patent publication US20200323860A1, “METHODS AND MATERIALS FOR TREATING CANCER” (Mayo Foundation for Medical Education and Research, priority 2015, published 2020).

The subject of assay [1] is Parkin phosphorylation at Ser378. Put plainly: Parkin Ser378 phosphorylation in cells, IP and immunoblot with pS378 antibody. In kind it is cell-based. On the procedure:
FIGS. 9A-9K. Parkin Is Phosphorylated by Plk1 at Ser378 and Activated during Mitosis. (A) Cells were synchronized at the G1/S transition by double-thymidine block, and cells were released. Cell were harvested at indicated times and analyzed by immunobloting. (B) Cells were incubated in the absence or presence of nocodazole or CCCP and subjected to immunoblot analysis with the indicated antibodies. (C) Comparison of the sequences surrounding 5378 of Parkin orthologues (SEQ ID NOS 42-47, respectively, in order of appearance). […] Immunoprecipitates were incubated with or without λ phosphatase (PPase) and were analyzed by immunobloting with pS378 antibody. (E) Cells were infected with the indicated constructs, synchronized by nocodazole, and released. Parkin phosphorylation at pS378 was then examined by immunoblot analysis. (F) Cells were transfected with indicated plasmids, and Parkin phosphorylation at pS378 was examined. (G) In vitro kinase assay of Parkin by Plk1. Parkin phosphorylation was visualized by pS378 Parkin antibody. (H) Cells were transfected with the indicated plasmids, and then treated with nocodazole. Cell lysates were then blotted with the indicated antibodies. (I) in vitro ubiquitination of Cyclin B1, Securin and Nek2A by WT Parkin and mutants (S65A, S65D, S378A and S378D). […] Samples were analyzed by immunobloting with anti-Cyclin B1, Securin and Nek2A antibody. […]

Assay [2] relates to binding of Parkin to Cdc20. The assay can be described thus: Parkin-Cdc20 binding in cells, IP-immunoblot. In kind it is cell-based. As to conditions: cells treated with chemical, with or without nocodazole (FIG. 9J).
The test system of assay [3] is Parkin WT or KO MEF cells. Put plainly: Sensitivity of Parkin WT or KO MEF cells to BI […], crystal violet staining. It is filed as cell-based, mouse. The note with it: FIG. 11F.
Protocol: (A) Cells were transfected with the indicated plasmids, and mitotic cells were analyzed by immunoblot for the indicated proteins. […] (C) A549 cells stably transfected with doxycycline-inducible constructs encoding WT Parkin or mutant Parkin (S378A and S378D) were treated with doxycycline and subjected to IP and immunoblot as indicated (Top), in vivo ubiquitination (Bottom). (D) Athymic nude mice were injected subcutaneously with A549 cells stably-transfected with vector or doxycycline-inducible Parkin constructs (WT, S378A and S378D). Two days after injection, doxycycline was administered in drinking water. Tumor growth was measured at the indicated times after injection. n=5 for each group. […] Tumor volumes (mm^3) were measured at the indicated times after injection (Bottom). *, p<0.05, **, p<0.01 and ***, p<0.001 by two-way ANOVA. (E) Cells were infected with the indicated constructs and were collected for FACS analysis. […] Results represent the means (±S.E.) of three experiments performed in triplicate. *, p<0.05 and ***, p<0.001 versus Parkin WT MEFs by one-way ANOVA (Right). […] Mean transformed MEFs volumes for Parkin KO are shown. ***, p<0.001 and ****, p<0.0001 versus Parkin WT MEFs by two-way ANOVA.
For colony formation or foci assay, early-passage MEFs (passage 5) cells were plated at low density into 60-mm cell culture plates. […]
The test system of a further assay is Parkin KO MEFs. The assay can be described thus: Transformation and escaped senescence of Parkin KO MEFs (foci formation, cell growth, SA-β-gal staining, colony formation). In kind it is cell-based, mouse. The note with it: FIG. 13A. On the procedure: (§1) FIG. 13A-13F. Transformed and escape senescence events in Parkin KO MEFs were reversed by expressing WT Parkin or downregulation of Plk1 but not C431S or S378A, related to FIGS. 6. (A and B) Parkin WT and KO MEFs under various condition were analyzed for foci formation assay, number of cell growth, SA-β-gal staining for senescence, colony formation assay. Cells were infected or treated with the indicated constructs or chemical and stained (A, left). Cells were infected with the indicated constructs and stained (B, left). Quantification of (left panel) with stained cell intensity results represent the means (±S.E.) of three independent experiments performed in triplicate (right). *, p<0.05, **, p<0.01 and ***, p<0.001 by one-way ANOVA. […] Quantification of cell numbers results represent the means (±S.E.) of three independent experiments performed in triplicate. ***, p<0.001 by one-way ANOVA.
For colony formation or foci assay, early-passage MEFs (passage 5) cells were plated at low density into 60-mm cell culture plates. When sufficient colonies were visible, typically after 2-3 weeks, cells were washed twice in PBS before fixing in ice-cold 70% methanol for 30 minutes, stained by 0.2% Crystal violet for 2-3 hours. The following day cells were rinsed in PBS and air-dried. […]

Assay [4] relates to Parkin-deficient lung cancer cell lines. The assay can be described thus: Growth inhibition of Parkin-deficient lung cancer cell lines. It is filed as cell-based, human. As to conditions: BI 2536 100 nM or VX-680 50 nM for 72 hours; BI 2536 dose dependent for 3 days (FIG. 13C-13F). On the procedure:
as §1, with “Transformed and escape senescence events in Parkin KO MEFs were reversed by expressing WT Parkin or downregulation of Plk1 but not C431S or S378A, related to FIGS. 6.” left out
(§2) All cell lines were sourced from commercial venders. […] Three normal lung (2 fibroblasts, IMR-90 and WI-38; 1 epithelial cells; BEAS-2B) cells, six NSCLCs (4 adenocarcinoma, H1437, H522, H1650 and A549; 2 large cell carcinoma, H460 and H1299), and one SCLC (H196) cells were maintained in Eagle's minimal essential media (EMEM, Gibco-Invitrogen, Grand Island, N.Y.). The human lung fibroblast IMR-90 and WI-38 cells were obtained from the American Type Culture Collection (ATCC, Manassas, Va.), and cells ranging from 29 to 34 in population doubling level (PDL) were used. […]

The test system of assay [5] is lung normal fibroblast (WI-38 and IMR 90 cells). Put plainly: Growth inhibition of normal lung fibroblasts. In kind it is cell-based, human. The note with it: WI-38 and IMR 90 cells (FIG. 13E and 13F). On the procedure: as §1, with “Transformed and escape senescence events in Parkin KO MEFs were reversed by expressing WT Parkin or downregulation of Plk1 but not C431S or S378A, related to FIGS. 6.” left out
as §2

Assay [6] deals with Parkin KO MEF tumors in nude mice. The assay can be described thus: Mouse xenograft tumor model with Parkin WT or KO MEFs. As to conditions: tumors with Parkin-deficiency, i.v., 20 mg/kg twice weekly, four cycles. It is filed as in vivo. On the procedure: FIGS. 11A-11H. Parkin Is A Key Mitotic Regulator Functioning as a Tumor Suppressor. (A) Cells were transfected with the indicated plasmids, and mitotic cells were analyzed by immunoblot for the indicated proteins. (B) Schematic of the experiments. (C) A549 cells stably transfected with doxycycline-inducible constructs encoding WT Parkin or mutant Parkin (S378A and S378D) were treated with doxycycline and subjected to IP and immunoblot as indicated (Top), in vivo ubiquitination (Bottom). (D) Athymic nude mice were injected subcutaneously with A549 cells stably-transfected with vector or doxycycline-inducible Parkin constructs (WT, S378A and S378D). […] Tumor growth was measured at the indicated times after injection. n=5 for each group. […] Tumor volumes (mm^3) were measured at the indicated times after injection (Bottom). *, p<0.05, **, p<0.01 and ***, p<0.001 by two-way ANOVA. […]
For MEF xenograft experiments, equal numbers (1×10^6 cells) of Parkin WT or KO MEF cells expressing luciferase mixed at a 1:1 dilution with matrigel (Collaborative Research) were implanted in the backs of athymic nude mice. Tumor growth was monitored using calipers and visualized with a bioluminescence-based IVIS system (Caliper LifeScience). […] Tumour growth was measured using a vernier caliper at the indicated times after injection, and the tumor volume was calculated as length×width×height. […]

On to `CC[C@@H]1C(=O)N(C)c2cnc(Nc3ccc(C(=O)NC4CCN(C)CC4)cc3OC)nc2N1C1CCCC1` [BI 2536, (R)-4-(8-cyclopentyl-7-ethyl-5-methyl-6-oxo-5,6,7,8-tetrahydropteridin-2-ylamino)-3-methoxy-N-(1-methylpiperidin-4-yl)benzamide], for which, in assay [1] (nocodazole-arrested mitotic cells, with Plk1 inhibitor (FIG. 9D)), the “Parkin phosphorylation at Ser378” value was “blocked Parkin phosphorylation at Ser378”. The “binding of Parkin to Cdc20” value in assay [2] was “decreased binding of Parkin to Cdc20”. Moreover, the “transformation of Parkin KO MEFs” value in assay [3] is “inhibited transformation of Parkin KO MEFs”. Also, in the assay with Parkin KO MEFs, the “escaped senescence and transformation induced by Parkin depletion” value is listed as “transformation was abolished”. Further, the “sensitivity (growth inhibition) of Parkin-deficient lung cancer cell lines” value in assay [4] is recorded as “significantly sensitive”. For the same molecule, in assay [5], the “sensitivity (growth inhibition) of lung normal fibroblasts” value is “but not lung normal fibroblasts”. The “tumor inhibition in vivo” value in assay [6] was “excellent tumor inhibition”.

In the case of `N#CC(C#N)=NNc1cccc(Cl)c1` [CCCP, carbonyl cyanide m-chlorophenylhydrazone], in assay [1] (cells incubated with CCCP (FIG. 9B)), the “Ser 378 phosphorylation of Parkin” value is given as “did not affect Ser 378 phosphorylation”.

Take `Cc1cc(Nc2cc(N3CCN(C)CC3)nc(Sc3ccc(NC(=O)C4CC4)cc3)n2)n[nH]1` [VX 680, N-(4-(4-(5-methyl-1H-pyrazol-3-ylamino)-6-(4-methylpiperazin-1-yl)pyrimidin-2-ylthio)phenyl)-cyclopropanecarboxamide]: the “sensitivity (growth inhibition) of Parkin-deficient lung cancer cell lines” value in assay [4] is “significantly sensitive”. In addition, in assay [5], the “sensitivity (growth inhibition) of lung normal fibroblasts” value was “but not lung normal fibroblasts”.
